Measurements taken from article PMC12730265, “Combinatorial Antimicrobial Effects of Imidazolium-Based Ionic Liquids and Antifungals on Model Fungal Organisms” (Biomolecules, 2025).

Legend:
HeLa cells [1] = assay: CellTiter-Blue cytotoxicity assay; type: cell-based, human; conditions: Homo sapiens, HeLa; 24 h exposure; read-out: EC50 (50% viability)
Description: EC50 and FIC calculations were performed using these treatments.
To understand the degree to which imidazolium chloride-based ILs of varying chain length are toxic to human cells, we treated HeLa cells with [HMIM]Cl or [OMIM]Cl with each of the four azole AFs for 24 h and evaluated cytotoxicity. Following 24 h of exposure in liquid culture at defined serial dilutions in a 96-well plate format, cells were evaluated for viability using CellTiter-Blue assay in which living cells can metabolize resazurin into resorufin, a fluorescent reporter molecule detected by plate spectroscopy. Consistent with findings for bacteria and yeast microorganisms, high concentrations of imidazolium chloride-based ILs are toxic to HeLa cells (Figure 6B). Moreover, HeLa cells treated with ILs with longer alkyl chain lengths [OMIM]Cl are less viable than when treated with [HMIM]Cl at the same final concentration. […] With respect to all four AFs, the degree of specificity for these drugs to fungi vs. human cells was clear (Figure 6B).

S. pombe = assay: MIC50 by microbroth dilution; type: cell-based; conditions: Schizosaccharomyces pombe; 50% growth after 48 h in YPD media, OD600; read-out: MIC50
Description: (§1) A single colony was picked from each streak to prepare overnight in 5 mL fresh YPD broth and placed into a tilted rotating incubator set at 30 °C and 40 rpm overnight. After ~16–20 h, a fresh dilution in media (1:200) was made and used for the experiment. […] Finally, diluted culture was added to each well of a sterile 96-well plate containing serially diluted aliquots of each RTIL to a total volume of 100 µL. The plate was incubated at 30 °C overnight with shaking for 24 and 48 h. At both timepoints, the yeast was manually resuspended in the plate by pipetting and we measured the OD600 using a Spectramax M5 multimode plate reader (Molecular Devices, San Jose, CA, USA).
(§2) The four species of yeast tested included three common lab strains of non-pathogenic yeast strains, S. boulardii, S. cerevisiae, and S. pombe, and one common human pathogen, C. albicans.

C. albicans = assay: MIC50 by microbroth dilution; type: cell-based; conditions: Candida albicans, 48 h, 50% growth after 48 h in YPD media, OD600; read-out: MIC50
Description: as §1, §2

S. cerevisiae = assay: MIC50 by microbroth dilution; type: cell-based; conditions: Saccharomyces cerevisiae; 50% growth after 48 h in YPD media, OD600; read-out: MIC50
Description: as §1, §2

S. boulardii = assay: MIC50 by microbroth dilution; type: cell-based; conditions: Saccharomyces cerevisiae; 50% growth after 48 h in YPD media, OD600; read-out: MIC50
Description: as §1, §2

HeLa cells [2] = assay: Checkerboard cytotoxicity assay IL + Clotrimazole, CellTiter-Blue
Description: HeLa cells (Kyoto line) were grown at 37 °C in 5% CO2 using DMEM media with 4.5 g/L glucose + Sodium Pyruvate + L-Glutamine (VWRV02-0101) with 10% FBS. Antibiotics such as Pen/Strep were not used during treatment with ILs or AFs to exclude the possibility of interaction with other antibiotics. HeLa cells were grown to 70–90% confluency in T75 dishes; cells were dissociated with Trypsin/EDTA […] for 3 min and resuspended in 25 mL DMEM +10% FBS; 180 μL cells in media were added to each of the 96 wells on the plasma-treated culture plate and incubated at 37 °C overnight. Solutions of Clotrimazole plus either [HMIM]Cl and [OMIM]Cl were created and 20 μL of IL, AF, or IL + AF were added to 96-well plate and incubated at 37 °C for 24 h. Promega CellTiter-Blue Cell Viability reagent was used to evaluate cytotoxicity in accordance with the manufacturer’s guidelines. For each well, 20 μL of CellTiter-Blue was added and then the plates were incubated for either 1, 2, or 4 h and fluorescence was measured at Ex/EM 485/590 nm using a Biotek Synergy HT fluorometer Winooski, VT USA. EC50 and FIC calculations were performed using these treatments. EC50 calculations were performed using ATTB Bioquest online EC50 calculator and FIC scores were calculated as described in Doern et al..
One open question is whether addition of either of these ILs at sub-cytotoxic concentrations can improve effectiveness of AFs in fungi vs. mammalian cells. To evaluate this, we performed checkerboard assays for both [HMIM]Cl and [OMIM]Cl in the presence of Clotrimazole and calculated FIC scores as described in C. albicans checkerboard assays.

CCCCCCCCn1cc[n+](C)c1.[Cl-] [[OMIM]Cl, 1-octyl-3-methylimidazolium chloride]
EC50 (HeLa cells [1]): 1110 µM | MIC50 (S. pombe): 1250 µM | MIC50 (C. albicans): 3120 µM | MIC50 (S. cerevisiae): 625 µM | MIC50 (S. boulardii): 625 µM | IL concentration used for FIC, IL alone (HeLa cells [2]; IL alone): 3.125 mM | Cell Titer Blue Assay plate reading (HeLa cells [2]; OMIM[Cl] 0.195312, Clotrimazole 0.03125 mg/mL): 553 | Cell Titer Blue Assay plate reading (HeLa cells [2]; OMIM[Cl] 0.195312, Clotrimazole 0.0625 mg/mL): 506 | Cell Titer Blue Assay plate reading (HeLa cells [2]; OMIM[Cl] 0.195312, Clotrimazole 0.125 mg/mL): 440 | Cell Titer Blue Assay plate reading (HeLa cells [2]; OMIM[Cl] 0.195312, Clotrimazole 0.25 mg/mL): 135 | Cell Titer Blue Assay plate reading (HeLa cells [2]; OMIM[Cl] 0.195312, Clotrimazole 0.5 mg/mL): 30 | Cell Titer Blue Assay plate reading (HeLa cells [2]; OMIM[Cl] 0.195312, PBS instead of Clotrimazole): 524 | Cell Titer Blue Assay plate reading (HeLa cells [2]; OMIM[Cl] 0.390625, Clotrimazole 0.03125 mg/mL): 343 | Cell Titer Blue Assay plate reading (HeLa cells [2]; OMIM[Cl] 0.390625, Clotrimazole 0.0625 mg/mL): 333 | Cell Titer Blue Assay plate reading (HeLa cells [2]; OMIM[Cl] 0.390625, Clotrimazole 0.125 mg/mL): 92 | Cell Titer Blue Assay plate reading (HeLa cells [2]; OMIM[Cl] 0.390625, Clotrimazole 0.25 mg/mL): 161 | Cell Titer Blue Assay plate reading (HeLa cells [2]; OMIM[Cl] 0.390625, Clotrimazole 0.5 mg/mL): 31 | Cell Titer Blue Assay plate reading (HeLa cells [2]; OMIM[Cl] 0.390625, PBS instead of Clotrimazole): 533 | Cell Titer Blue Assay plate reading (HeLa cells [2]; OMIM[Cl] 0.78125, Clotrimazole 0.03125 mg/mL): 128 | Cell Titer Blue Assay plate reading (HeLa cells [2]; OMIM[Cl] 0.78125, Clotrimazole 0.0625 mg/mL): 121 | Cell Titer Blue Assay plate reading (HeLa cells [2]; OMIM[Cl] 0.78125, Clotrimazole 0.125 mg/mL): 60 | Cell Titer Blue Assay plate reading (HeLa cells [2]; OMIM[Cl] 0.78125, Clotrimazole 0.25 mg/mL): 66 | Cell Titer Blue Assay plate reading (HeLa cells [2]; OMIM[Cl] 0.78125, Clotrimazole 0.5 mg/mL): 32 | Cell Titer Blue Assay plate reading (HeLa cells [2]; OMIM[Cl] 0.78125, PBS instead of Clotrimazole): 180 | Cell Titer Blue Assay plate reading (HeLa cells [2]; OMIM[Cl] 1.5625, Clotrimazole 0.03125 mg/mL): 126 | Cell Titer Blue Assay plate reading (HeLa cells [2]; OMIM[Cl] 1.5625, Clotrimazole 0.0625 mg/mL): 45 | Cell Titer Blue Assay plate reading (HeLa cells [2]; OMIM[Cl] 1.5625, Clotrimazole 0.125 mg/mL): 58 | Cell Titer Blue Assay plate reading (HeLa cells [2]; OMIM[Cl] 1.5625, Clotrimazole 0.25 mg/mL): 33 | Cell Titer Blue Assay plate reading (HeLa cells [2]; OMIM[Cl] 1.5625, Clotrimazole 0.5 mg/mL): 36 | Cell Titer Blue Assay plate reading (HeLa cells [2]; OMIM[Cl] 1.5625, PBS instead of Clotrimazole): 206 | Cell Titer Blue Assay plate reading (HeLa cells [2]; OMIM[Cl] 3.125, Clotrimazole 0.03125 mg/mL): 47 | Cell Titer Blue Assay plate reading (HeLa cells [2]; OMIM[Cl] 3.125, Clotrimazole 0.0625 mg/mL): 37 | Cell Titer Blue Assay plate reading (HeLa cells [2]; OMIM[Cl] 3.125, Clotrimazole 0.125 mg/mL): 36 | Cell Titer Blue Assay plate reading (HeLa cells [2]; OMIM[Cl] 3.125, Clotrimazole 0.25 mg/mL): 36 | Cell Titer Blue Assay plate reading (HeLa cells [2]; OMIM[Cl] 3.125, Clotrimazole 0.5 mg/mL): 38 | Cell Titer Blue Assay plate reading (HeLa cells [2]; OMIM[Cl] 3.125, PBS instead of Clotrimazole): 47 | Cell Titer Blue Assay plate reading (HeLa cells [2]; OMIM[Cl] 6.25, Clotrimazole 0.03125 mg/mL): 41 | Cell Titer Blue Assay plate reading (HeLa cells [2]; OMIM[Cl] 6.25, Clotrimazole 0.0625 mg/mL): 38 | Cell Titer Blue Assay plate reading (HeLa cells [2]; OMIM[Cl] 6.25, Clotrimazole 0.125 mg/mL): 39 | Cell Titer Blue Assay plate reading (HeLa cells [2]; OMIM[Cl] 6.25, Clotrimazole 0.25 mg/mL): 39 | Cell Titer Blue Assay plate reading (HeLa cells [2]; OMIM[Cl] 6.25, Clotrimazole 0.5 mg/mL): 40 | Cell Titer Blue Assay plate reading (HeLa cells [2]; OMIM[Cl] 6.25, PBS instead of Clotrimazole): 41 | Cell Titer Blue Assay plate reading (HeLa cells [2]; OMIM[Cl] 12.5, Clotrimazole 0.03125 mg/mL): 39 | Cell Titer Blue Assay plate reading (HeLa cells [2]; OMIM[Cl] 12.5, Clotrimazole 0.0625 mg/mL): 39 | Cell Titer Blue Assay plate reading (HeLa cells [2]; OMIM[Cl] 12.5, Clotrimazole 0.125 mg/mL): 38 | Cell Titer Blue Assay plate reading (HeLa cells [2]; OMIM[Cl] 12.5, Clotrimazole 0.25 mg/mL): 37 | Cell Titer Blue Assay plate reading (HeLa cells [2]; OMIM[Cl] 12.5, Clotrimazole 0.5 mg/mL): 40 | Cell Titer Blue Assay plate reading (HeLa cells [2]; OMIM[Cl] 12.5, PBS instead of Clotrimazole): 38
